Source: patent US20140296212A1, “SUBSTITUTED PHENOXYPROPYLCYCLOAMINE DERIVATIVES AS HISTAMINE-3 (H3) RECEPTOR LIGANDS” (CEPHALON, INC., priority 2009, published 2014)
Where two headings read alike, the source gives them in different places.

Key:
[1] = molecular target: T1, rat histamine H3 receptor (Rattus norvegicus, UniProt Q9QYN8); test: Rat H3 radioligand binding ([3H]-N-alpha-methylhistamine, SPA)
T1 construct: encoding the entire 445-amino-acid rat histamine H3 receptor; expressed in transfected cells
T1 sequence (Q9QYN8 whole entry): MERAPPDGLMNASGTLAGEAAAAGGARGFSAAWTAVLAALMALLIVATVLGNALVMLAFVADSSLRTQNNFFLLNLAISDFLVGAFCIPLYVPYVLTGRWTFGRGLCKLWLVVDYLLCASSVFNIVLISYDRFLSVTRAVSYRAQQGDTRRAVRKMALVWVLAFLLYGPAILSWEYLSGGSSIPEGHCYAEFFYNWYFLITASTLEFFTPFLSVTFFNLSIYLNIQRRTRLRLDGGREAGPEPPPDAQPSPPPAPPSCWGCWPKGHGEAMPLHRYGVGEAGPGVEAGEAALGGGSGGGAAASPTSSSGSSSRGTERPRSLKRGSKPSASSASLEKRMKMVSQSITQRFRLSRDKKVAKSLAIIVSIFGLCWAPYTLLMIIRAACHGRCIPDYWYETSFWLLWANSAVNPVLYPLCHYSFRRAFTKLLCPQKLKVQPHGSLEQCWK
From the text: The rat H3 receptor cDNA was PCR amplified from reverse-transcribed RNA pooled from rat thalamus, hypothalamus, striatum and prefrontal cortex with a sequence corresponding to by #338-1672 of Genbank file #NM_053506, encoding the entire 445-amino-acid rat histamine H3 receptor. This was engineered into the pIRES-neo3 mammalian expression vector, which was stably transfected into the CHO-A3 cell line (Euroscreen, Belgium), followed by clonal selection by limiting dilution. Cells were harvested and cell pellets were frozen (−80° C.). Cell pellets were resuspended in 5 mM Tris-HCl, pH 7.5 with 5 nM EDTA and a cocktail of protease inhibitors (Complete Protease Inhibitor Tablets, Roche Diagnostics). Cells were disrupted using a polytron cell homogenizer and the suspension was centrifuged at 1000×g for 10 minutes at 4° C. The pellet was discarded and the supernatant centrifuged at 40,000×g for 30 min at 4° C. This membrane pellet was washed in membrane buffer containing 50 mM Tris-HCl, pH 7.5 with 0.6 mM EDTA, 5 mM MgCl2 and protease inhibitors, recentrifuged as above and the final pellet resuspended in membrane buffer plus 250 mM sucrose and frozen at −80° C.
Membranes were resuspended in 50 mM Tris HCl (pH 7.4), 5 mM MgCl2, 0.1% BSA. The membrane suspensions (10 μg protein per well) were incubated in a 96 well microtiter plate with [^3H]-N-alpha-methylhistamine (approximately 1 nM final concentration), test compounds at various concentrations (0.01 nM-30 μM) and scintillation proximity beads (Perkin Elmer, FlashBlueGPCR Scintillating Beads) in a final volume of 80 μl for 4 hours at room temperature, protected from light. Non-specific binding was determined in the presence of 10 μM clobenpropit. Radioligand bound to receptor, and therefore in proximity to the scintillation beads, was measured using a MicroBeta scintillation counter.

human H3 receptor = molecular target: T2, human H3 receptor (Homo sapiens, UniProt Q9Y5N1); test: Human H3 radioligand binding ([3H]-N-alpha-methylhistamine, SPA); conditions: membranes of CHO cells expressing human H3
T2 construct: expressed in transfected cells
T2 sequence (Q9Y5N1 whole entry): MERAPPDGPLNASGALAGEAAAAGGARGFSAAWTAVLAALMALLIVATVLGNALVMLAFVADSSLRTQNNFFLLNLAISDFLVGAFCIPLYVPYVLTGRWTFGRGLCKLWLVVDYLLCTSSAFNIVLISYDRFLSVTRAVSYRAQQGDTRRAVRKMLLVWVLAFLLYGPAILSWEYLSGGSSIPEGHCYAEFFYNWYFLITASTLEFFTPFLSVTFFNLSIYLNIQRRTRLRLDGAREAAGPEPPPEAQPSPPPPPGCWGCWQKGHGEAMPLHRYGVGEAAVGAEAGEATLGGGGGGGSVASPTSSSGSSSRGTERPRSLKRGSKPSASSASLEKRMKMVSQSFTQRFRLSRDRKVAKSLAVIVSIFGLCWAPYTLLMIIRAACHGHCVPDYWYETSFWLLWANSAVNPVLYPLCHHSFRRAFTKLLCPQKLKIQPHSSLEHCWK
Outline: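 Membranes from H3-expressing cells (10 μg protein/well) in 50 mM Tris HCl pH 7.4, 5 mM MgCl2, 0.1% BSA with ~1 nM [3H]-N-alpha-methylhistamine and compound (0.01 nM–30 μM), SPA beads, 4 h, room temperature, dark. Non-specific binding defined with 10 μM clobenpropit; bound radioligand read by scintillation counting.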

[2] = membranes of CHO-A3 cells expressing rat H3, [3H]-N-alpha-methylhistamine, read-out: Rat H3 Ki

Row | Compound | Ki [1] [µM] | melting point | Ki (human H3 receptor) [µM] | Ki [1, 2] [µM]
1 | CC(C(=O)c1ccc(OCCCN2CCC[C@H]2C)cc1)N1CCOCC1 (stereo partly drawn) [Example 37, 1-{4-[3-((R)-2-Methyl-pyrrolidin-1-yl)-propoxy]-phenyl}-2-morpholin-4-yl-propan-1-one] | 0.101 to 0.5 | 231 °C | 0.0001 to 0.1 | 
2 | C[C@@H]1CCCN1CCCOc1ccc(C(=O)CN2CCC(F)(F)CC2)cc1 [Example 44, 2-(4,4-Difluoro-piperidin-1-yl)-1-{4-[3-((R)-2-methyl-pyrrolidin-1-yl)-propoxy]-phenyl}-ethanone] |  | 127 to 140 °C | 0.0001 to 0.1 | 0.0001 to 0.1
3 | O=C(CN1CCOCC1)c1ccc(OCCCN2CCN3CCC[C@H]3C2)cc1 [Example 51, 1-{4-[(S)-3-(Hexahydro-pyrrolo[1,2-a]pyrazin-2-yl)-propoxy)-phenyl}-2-morpholin-4-yl-ethanone] |  | 238 °C | > 1 | 
4 | CC(C)N1CCC(Oc2ccc(C(=O)CN3CCCC(F)(F)C3)cc2)CC1 [Example 53, 2-(3,3-Difluoro-piperidin-1-yl)-1-[4-(1-isopropyl-piperidin-4-yloxy)-phenyl]-ethanone] |  | 160 to 165 °C (dec.) | 0.0001 to 0.1 | 0.101 to 0.5
5 | C[C@@H]1CCCN1CCCOc1ccc(C(=O)CN2CCCC(C)(C)C2)cc1 [Example 55, 2-(3,3-Dimethyl-piperidin-1-yl)-1-{4-[3-((R)-2-methyl-pyrrolidin-1-yl)-propoxy]-phenyl}-ethanone] |  | 108 to 120 °C | 0.0001 to 0.1 | 0.0001 to 0.1
6 | CC(C(=O)c1ccc(OCCCN2CCC(F)(F)C2)cc1)N1CCOCC1 (stereo not shown) [Example 56, 1-{4-[3-(3,3-Difluoro-pyrrolidin-1-yl)-propoxy]-phenyl}-2-morpholin-4-yl-propan-1-one] |  | 254 °C | > 1 | 
7 | O=C1CN(CCCOc2ccc(C(=O)CN3CCOCC3)cc2)CCN1 [Example 57, 4-{3-[4-(2-Morpholin-4-yl-acetyl)-phenoxy]-propyl}-piperazin-2-one] |  | 230 °C | > 1 | > 1
8 | CC1CCC(C)N1CC(=O)c1ccc(OCCCN2CCC[C@H]2C)cc1 (stereo partly drawn) [Example 58, 2-(2,5-Dimethyl-pyrrolidin-1-yl)-1-{4-[3-((R)-2-methyl-pyrrolidin-1-yl)-propoxy]-phenyl}-ethanone] |  | 100 to 106 °C | 0.0001 to 0.1 | 0.0001 to 0.1
9 | CS(=O)(=O)N1CCN(CCCOc2ccc(C(=O)CN3CCOCC3)cc2)CC1 [Example 59, 1-{4-[3-(4-Methanesulfonyl-piperazin-1-yl)-propoxy]-phenyl}-2-morpholin-4-yl-ethanone] |  | 246 to 248 °C | > 1 | > 1
10 | CC1CCCC(C)N1CC(=O)c1ccc(OCCCN2CCC[C@H]2C)cc1 (stereo partly drawn) [Example 61, 2-(2,6-Dimethyl-piperidin-1-yl)-1-{4-[3-((R)-2-methyl-pyrrolidin-1-yl)-propoxy]-phenyl}-ethanone] |  | 127 to 135 °C | 0.0001 to 0.1 | 0.0001 to 0.1
11 | O=C(CN1CCOCC1)c1ccc(OCCCN2CCN3CCCCC3C2)cc1 (stereo not shown) [Example 62, 2-Morpholin-4-yl-1-{4-[3-(octahydro-pyrido[1,2-a]pyrazin-2-yl)-propoxy]-phenyl}-ethanone] |  | 251 °C | 0.501 to 1 | > 1
12 | CC(=O)N1CCN(CC(=O)c2ccc(OCCCN3CCC[C@H]3C)cc2)CC1 [Example 63, 2-(4-Acetyl-piperazin-1-yl)-1-{4-[3-((R)-2-methyl-pyrrolidin-1-yl)-propoxy]-phenyl}-ethanone] |  | 125 to 133 °C | 0.0001 to 0.1 | 0.0001 to 0.1
13 | O=C(CN1CCOCC1)c1ccc(OCCCN2CCCCC2)cc1F [Example 65, 1-[2-Fluoro-4-(3-piperidin-1-yl-propoxy)-phenyl]-2-morpholin-4-yl-ethanone] |  | 170 to 172 °C | 0.101 to 0.5 | > 1
14 | C[C@@H]1CCCN1CCCOc1ccc(C(=O)CN2CCN(S(C)(=O)=O)CC2)cc1 [Example 66, 2-(4-Methanesulfonyl-piperazin-1-yl)-1-{4-[3-((R)-2-methyl-pyrrolidin-1-yl)-propoxy]-phenyl}-ethanone] |  | 120 to 126 °C | 0.0001 to 0.1 | 0.0001 to 0.1
15 | C[C@@H]1CCCN1CCCOc1ccc(C(=O)CN2CCN(S(=O)(=O)c3ccccc3)CC2)cc1 [Example 69, 2-(4-Benzenesulfonyl-piperazin-1-yl)-1-{4-[3-((R)-2-methyl-pyrrolidin-1-yl)-propoxy]-phenyl}-ethanone] |  | 124 to 135 °C | 0.0001 to 0.1 | 0.0001 to 0.1
16 | C[C@@H]1CCCN1CCCOc1ccc(C(=O)CN2CCN(C(=O)N3CCOCC3)CC2)cc1 [Example 70, 1-{4-[3-((R)-2-Methyl-pyrrolidin-1-yl)-propoxy]-phenyl}-2-[4-(morpholine-4-carbonyl)-piperazin-1-yl]-ethanone] |  | 116 to 125 °C | 0.0001 to 0.1 | 0.0001 to 0.1
17 | COC[C@H]1CCCN1CCCOc1ccc(C(=O)CN2CCOCC2)cc1 [Example 71, 1-{4-[3-((R)-2-Methoxymethyl-pyrrolidin-1-yl)-propoxy]-phenyl}-2-morpholin-4-yl-ethanone] |  | > 200 °C (dec.) | > 1 | > 1
18 | Cc1cc(OCCCN2CCCCC2)ccc1C(=O)CN1CCOCC1 [Example 72, 1-[2-Methyl-4-(3-piperidin-1-yl-propoxy)-phenyl]-2-morpholin-4-yl-ethanone] |  | 206 to 215 °C | 0.0001 to 0.1 | 0.101 to 0.5
19 | C[C@@H]1CCCN1CCCOc1ccc(C(=O)CN2CCN(C(=O)N3CCCC3)CC2)cc1 [Example 75, 1-{4-[3-((R)-2-Methyl-pyrrolidin-1-yl)-propoxy]-phenyl}-2-[4-(pyrrolidine-1-carbonyl)-piperazin-1-yl]-ethanone] |  | 118 to 130 °C | 0.0001 to 0.1 | 0.0001 to 0.1
20 | COC[C@@H]1CCCN1CCCOc1ccc(C(=O)CN2CCOCC2)cc1 [Example 76, 1-{4-[3-((S)-2-Methoxymethyl-pyrrolidin-1-yl)-propoxy]-phenyl}-2-morpholin-4-yl-ethanone] |  | 74 to 76 °C | > 1 | > 1
21 | CC(C)C(=O)N1CCN(CC(=O)c2ccc(OCCCN3CCC[C@H]3C)cc2)CC1 [Example 77, 2-Methyl-1-[4-(2-{4-[3-((R)-2-methyl-pyrrolidin-1-yl)-propoxy]-phenyl}-2-oxo-ethyl)-piperazin-1-yl]-propan-1-one] |  | 220 to 226 °C | 0.0001 to 0.1 | 0.0001 to 0.1
22 | O=C(CN1CCOCC1)c1ccc(OCCCN2CCCCC2)cc1 [Example 78, 2-Morpholin-4-yl-1-[4-(3-piperidin-1-yl-propoxy)-phenyl]-ethanone] |  | 236 to 243 °C | 0.0001 to 0.1 | 0.101 to 0.5
23 | C[C@@H]1CCCN1CCCOc1ccc(C(=O)CN2CCN(C(=O)N(C)C)CC2)cc1 [Example 79, 4-(2-{4-[3-((R)-2-Methyl-pyrrolidin-1-yl)-propoxy]-phenyl}-2-oxo-ethyl)-piperazine-1-carboxylic acid dimethylamide] |  | 120 to 126 °C | 0.0001 to 0.1 | 0.0001 to 0.1
24 | C[C@@H]1CCCN1CCCOc1ccc(C(=O)CN2CCN(C(=O)c3cccs3)CC2)cc1 [Example 80, 1-{4-[3-((R)-2-Methyl-pyrrolidin-1-yl)-propoxy]-phenyl}-2-[4-(thiophene-2-carbonyl)-piperazin-1-yl]-ethanone] |  | 152 to 156 °C | 0.0001 to 0.1 | 0.0001 to 0.1
25 | C[C@@H]1CCCN1CCCOc1ccc(C(=O)CN2CCN(C(=O)c3ccco3)CC2)cc1 [Example 81, 2-[4-(Furan-2-carbonyl)-piperazin-1-yl]-1-{4-[3-((R)-2-methyl-pyrrolidin-1-yl)-propoxy]-phenyl}-ethanone] |  | 130 to 135 °C | 0.0001 to 0.1 | 0.0001 to 0.1
26 | COC(=O)N1CCN(CC(=O)c2ccc(OCCCN3CCC[C@H]3C)cc2)CC1 [Example 82, 4-(2-{4-[3-((R)-2-Methyl-pyrrolidin-1-yl)-propoxy]-phenyl}-2-oxo-ethyl)-piperazine-1-carboxylic acid methyl ester] |  | 208 to 210 °C | 0.0001 to 0.1 | 0.0001 to 0.1
